The experiment concerns the target T1, human α-thrombin (Homo sapiens, UniProt P00734).
T1 construct: Human α-thrombin, human factor Xa and human plasmin were obtained from Enzyme Research Laboratories; purchased Enzyme Research Laboratories (South Bend, Ind.)
Kind of experiment: In vitro inhibition of purified enzymes: Ki determination, hydrolysis of peptide p-nitroanilide substrate by thrombin. It counts as biochemical. The source says: Reagents: All buffer salts were obtained from Sigma Chemical Company (St. Louis, Mo.), and were of the highest purity available.
Human α-thrombin, human factor Xa and human plasmin were obtained from Enzyme Research Laboratories (South Bend, Ind.). Bovine α-chymotrypsin (Sigma C4129), bovine trypsin (Sigma T8642) and human kidney cell urokinase (Sigma U5004) were obtained from Sigma. Human leukocyte elastase was obtained from Elastin Products (Pacific, Mo.).
Ki Determinations: All assays are based on the ability of the test compound to inhibit the enzyme catalyzed hydrolysis of a peptide p-nitroanilide substrate. […] The final concentrations for each of the substrates is listed below. In general, substrate concentrations are lower than the experimentally determined value for Km. Test compounds are prepared as a 1.0 mg/ml solution in DMSO. […]
Data corresponding to less than 10% of the total substrate hydrolysis were used in the calculations. The ratio of the velocity (rate of change in absorbance as a function of time) for a sample containing no test compound is divided by the velocity of a sample containing test compound, and is plotted as a function of test compound concentration. The data are fit to a linear regression, and the value of the slope of the line calculated. The inverse of the slope is the experimentally determined Ki value. […]

Structures can show the parent of a compound that is named as a salt.

In turn, `Cc1nc(N)ccc1CNC(=O)Cc1c(Cl)ccc(NCC(F)(F)c2ccc(F)c3ccccc23)c1F` [Example 5, N-[(6-Amino-2-methyl(3-pyridyl))methyl]-2-(3-{[2,2-difluoro-2-(4-fluoronaphthyl)ethyl]amino}-6-chloro-2-fluorophenyl)acetamide Hydrochloride Salt] gave an inhibition constant Ki of 2.8 nM.
